Source: patent publication US20090221642A1, “MUSCARINIC RECEPTOR AGONISTS, COMPOSITIONS, METHODS OF TREATMENT THEREOF, AND PROCESSES FOR PREPARATION THEREOF-176” (AstraZeneca AB, priority 2008, published 2009)

target: T1, cloned human M2 receptor (human Muscarinic receptor subtype 2) (Homo sapiens, UniProt P08172); assay: hM2 receptor GTPγS binding; format: biochemical; details: CHO cell membranes expressing hM2; [35S]GTPγS binding; read-out: hM2 EC50
T1 construct: purchased Perkin-Elmer RBHM2M; host or cells: Chinese hamster ovary cells (CHO) membranes
T1 sequence (P08172 1-466): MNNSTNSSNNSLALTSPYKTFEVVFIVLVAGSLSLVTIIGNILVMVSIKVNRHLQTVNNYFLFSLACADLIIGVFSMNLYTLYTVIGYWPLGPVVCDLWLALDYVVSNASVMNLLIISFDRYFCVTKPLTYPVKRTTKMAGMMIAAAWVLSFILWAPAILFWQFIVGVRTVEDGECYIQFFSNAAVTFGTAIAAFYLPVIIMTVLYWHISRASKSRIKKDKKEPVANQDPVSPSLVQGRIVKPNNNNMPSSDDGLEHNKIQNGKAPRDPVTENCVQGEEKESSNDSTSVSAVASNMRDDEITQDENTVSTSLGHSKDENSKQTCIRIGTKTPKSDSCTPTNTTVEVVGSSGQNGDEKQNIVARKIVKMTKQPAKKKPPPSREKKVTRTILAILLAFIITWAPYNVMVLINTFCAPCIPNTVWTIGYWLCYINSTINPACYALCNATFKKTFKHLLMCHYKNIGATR
Procedure: hM2 Receptor GTPγS Binding
Membranes produced from Chinese hamster ovary cells (CHO) expressing the cloned human M2 receptor (human Muscarinic receptor subtype 2, gene bank access NM_000739), are obtained from Perkin-Elmer (RBHM2M). The membranes are thawed at 37° C., passed 3 times through a 23-gauge blunt-end needle, diluted in the GTPγS binding buffer (50 mM Hepes, 20 mM NaOH, 100 mM NaCl, 1 mM EDTA, 5 mM MgCl2, pH 7.4, 100 μM DTT). The EC50, IC50 and Emax of the compounds of the invention are evaluated from 10-point dose-response curves (three fold concentration range) done in 60 μl in 384-well non-specific binding surface plate (Corning). Ten microliters from the dose-response curves plate (5× concentration) are transferred to another 384 well plate containing 25 μl of the following: 5 μg of hM2 membranes, 500 μg of Flashblue beads (Perkin-Elmer) and GDP 25 μM. An additional 15 μl containing 3.3× (60,000 dpm) of GTPγ^35S (0.4 nM final) are added to the wells resulting in a total well volume of 50 μl. Basal and maximal stimulated [^35S]GTPγS binding are determined in absence and presence of 30 μM final of acetylcholine agonist. The membranes/beads mix are pre-incubated for 15 minutes at room temperature with 25 μM GDP prior to distribution in plates (12.5 μM final). The reversal of acetylcholine-induced stimulation (2 μM final) of [^35S]GTPγS binding is used to assay the antagonist properties (IC50) of the compounds. The plates are incubated for 60 minutes at room temperature then centrifuged at 400 rpm for 5 minutes. The radioactivity (cpm) is counted in a Trilux (Perkin-Elmer).
Values of EC50, IC50 and Emax are obtained using sigmoidal fits of a non-linear curve-fitting program (XLfit version 4.2.2 Excel add-in version 4.2.2 build 18 math 1Q version 2.1.2 build 18) of percent stimulated [^35S]GTPγS binding vs. log(molar ligand). All pEC50 and plC50 values are reported as arithmetic means ±standard error of mean of ‘n’ independent experiments.

Q: How did the EC50 turn out when `COC(=O)N1CCC(C)(N2CCC(N3C(=O)Cc4ccc(F)cc43)CC2)C1` (single isomer, unassigned) [Example 76, methyl 3-(4-(6-fluoro-2-oxoindolin-1-yl)piperidin-1-yl)-3-methylpyrrolidine-1-carboxylate] was run?
A: The EC50 was 3500 nM.

Q: `CCOC(=O)N1CCC(C)(N2CCC(N3C(=O)Cc4cc(F)ccc43)CC2)C1` (single isomer, unassigned) [Example 79, ethyl 3-(4-(5-fluoro-2-oxoindolin-1-yl)piperidin-1-yl)-3-methylpyrrolidine-1-carboxylate] was tested. Which EC50 did it give?
A: The EC50 was 1130 nM.

Q: How did the EC50 turn out when `CCOC(=O)N1CCC(C)(N2CCC(N3C(=O)Cc4cc(F)ccc43)CC2)C1` (single isomer, unassigned) [Example 80, ethyl 3-(4-(5-fluoro-2-oxoindolin-1-yl)piperidin-1-yl)-3-methylpyrrolidine-1-carboxylate] was run?
A: Its EC50 is 3260 nM.

Q: `CCOC(=O)N1CCC(C)(N2CCC(N3C(=O)Cc4cc(F)c(C)cc43)CC2)C1` (single isomer, unassigned) [Example 81, ethyl 3-(4-(5-fluoro-6-methyl-2-oxoindolin-1-yl)piperidin-1-yl)-3-methylpyrrolidine-1-carboxylate] was tested. Which EC50 did it give?
A: The EC50 was 1670 nM.

Q: For `CCOC(=O)N1CCC(C)(N2CCC(N3C(=O)Cc4cc(F)c(C)cc43)CC2)C1` (single isomer, unassigned) [Example 82, ethyl 3-(4-(5-fluoro-6-methyl-2-oxoindolin-1-yl)piperidin-1-yl)-3-methylpyrrolidine-1-carboxylate], which EC50 is on record?
A: Its EC50 is 270 nM.

Q: `CCOC(=O)N1CCC(C)(N2CCC(n3c(=O)[nH]c4ccccc43)CC2)C1` (centres unmarked) [Example 1, ethyl 3-methyl-3-(4-(2-oxo-2,3-dihydro-1H-benzo[d]imidazol-1-yl)piperidin-1-yl)pyrrolidine-1-carboxylate] was tested. Which EC50 did it give?
A: Its EC50 is 498 nM.

Q: For `CCNC(=O)N1CCC(C)(N2CCC(n3c(=O)[nH]c4ccccc43)CC2)C1` (centres unmarked) [Example 5, N-ethyl-3-methyl-3-(4-(2-oxo-2,3-dihydro-1H-benzo[d]imidazol-1-yl)piperidin-1-yl)pyrrolidine-1-carboxamide], which EC50 is on record?
A: Its EC50 is 5130 nM.

Q: For `COC(=O)N1CCC(C)(N2CCC(n3c(=O)[nH]c4cc(F)ccc43)CC2)C1` (centres unmarked) [Example 8, methyl 3-(4-(5-fluoro-2-oxo-2,3-dihydro-1H-benzo[d]imidazol-1-yl)piperidin-1-yl)-3-methylpyrrolidine-1-carboxylate], which EC50 is on record?
A: Its EC50 is 1280 nM.

Q: Which EC50 does the source give for `CC1(N2CCC(n3c(=O)[nH]c4cc(F)ccc43)CC2)CCN(C(=O)OCCF)C1` (centres unmarked) [Example 10, 2-fluoroethyl 3-(4-(5-fluoro-2-oxo-2,3-dihydro-1H-benzo[d]imidazol-1-yl)piperidin-1-yl)-3-methylpyrrolidine-1-carboxylate] here?
A: Its EC50 is 2140 nM.

Q: Which EC50 does the source give for `C#CCOC(=O)N1CCC(C)(N2CCC(n3c(=O)[nH]c4cc(F)ccc43)CC2)C1` (centres unmarked) [Example 11, prop-2-ynyl 3-(4-(5-fluoro-2-oxo-2,3-dihydro-1H-benzo[d]imidazol-1-yl)piperidin-1-yl)-3-methylpyrrolidine-1-carboxylate] here?
A: The EC50 was 149 nM.

Q: For `CCOC(=O)N1CCC(C)(N2CCC(n3c(=O)[nH]c4ccc(C)cc43)CC2)C1` (centres unmarked) [Example 16, ethyl 3-methyl-3-(4-(6-methyl-2-oxo-2,3-dihydro-1H-benzo[d]imidazol-1-yl)piperidin-1-yl)pyrrolidine-1-carboxylate], which EC50 is on record?
A: The EC50 was 418 nM.

Q: With `COC(=O)N1CCC(C)(N2CCC(n3c(=O)[nH]c4ccc(C)cc43)CC2)C1` (centres unmarked) [Example 17, methyl 3-methyl-3-(4-(6-methyl-2-oxo-2,3-dihydro-1H-benzo[d]imidazol-1-yl)piperidin-1-yl)pyrrolidine-1-carboxylate] as the molecule, how does the EC50 read?
A: Its EC50 is 709 nM.

same assay, conditions: hM2 EC50 (nM), CHO cell membranes expressing hM2; [35S]GTPγS binding

Q: How did the EC50 turn out when `COC(=O)N1CCC(C)(N2CCC(N3C(=O)Cc4cc(F)c(C)cc43)CC2)C1` (single isomer, unassigned) [Example 83, methyl 3-(4-(5-fluoro-6-methyl-2-oxoindolin-1-yl)piperidin-1-yl)-3-methylpyrrolidine-1-carboxylate] was run?
A: The EC50 was 2840 nM.

Q: How did the EC50 turn out when `COC(=O)N1CCC(C)(N2CCC(N3C(=O)Cc4cc(F)c(C)cc43)CC2)C1` (single isomer, unassigned) [Example 84, methyl 3-(4-(5-fluoro-6-methyl-2-oxoindolin-1-yl)piperidin-1-yl)-3-methylpyrrolidine-1-carboxylate] was run?
A: Its EC50 is 684 nM.
